Common to all, as to format: cell-based
Test [1] has as its system RBL-2H3. The test can be described thus: Degranulation promoting effect in RBL2H3 (β-hexosaminidase release). As for the experimental part:
(§1) RBL-2H3 (hereinafter RBL2H3) was incubated in α-MEM (Invitrogen) supplemented with 10% fetal calf serum. Vector plasmid pcDNA3.1 for animal cell expression, in which the nucleotide sequence containing the initiation codon to the termination codon of human TGR12 (DNA having the nucleotide sequence represented by SEQ ID NO: 32) was incorporated, was stably expressed in RBL-2H3 to establish human TGR12-expressed RBL-2H3 cell line (hereinafter RBL2H3-TGR12). RBL2H3-TGR12 was incubated in α-MEM (Invitrogen) supplemented with 10% fetal calf serum and 200 μg/mL of Geneticin.
The degranulation promoting effect was determined as follows. RBL2H3 and RBL2H3-TGR12 were plated into a 96-well plate at a density of 40,000 cells/well and incubated overnight. Afterward the medium was discarded. […] The β-hexosaminidase activity in the supernatant for the degranulation assay was measured as follows to determine the degree of degranulation. The supernatant was dispensed into a 96-well plate and a 5-fold volume of 0.1M citrate (pH 4.5)/1 mM 4-methyl umbelliferyl-2-acetamido-2-deoxy-beta-D-glucopyranoside (Wako Pure Chemical) based on the volume of the supernatant was added thereto, followed by incubation at 37° C. for an hour. Subsequently, a 0.1-fold volume of 0.2 M glycine/NaCO3 (pH 10.7) based on the volume of the reaction solution was added to stop the reaction and the fluorescence was measured using Fusion-α (Perkin Elmer). For the β-hexosaminidase activity, the activity in the supernatant, which was obtained by likewise plating RBL2H3 and RBL2H3-TGR12GFP onto the plate, detaching the same with trypsin/EDTA, freeze-thawing 4 times and then centrifugation, was made the total β-hexosaminidase activity in LAD 2. The degree of degranulation was shown by a ratio of the β-hexosaminidase activity in the LAD 2 supernatant to the total β-hexosaminidase activity.

The subject of test [2] is human mast cell line LAD 2. The test can be described thus: Expression of TNF-α, CCL-2 or CCL-5 mRNA in LAD 2 (TaqMan PCR). The conditions noted are these: 1 μM. The protocol: Human mast cell line LAD 2 was cultured in StemPro-34 medium (Invitrogen) supplemented with 100 ng/mL of stem cell factor (Immuno-Biological Laboratories Co., Ltd.). […] A 750 μL aliquot was inoculated on a 24-well plate, which was then allowed to stand in a CO2 incubator at 37° C. for 30 minutes. […] The assay was performed for the respective reaction conditions in n=3. The plate was ice-chilled 0.5, 2, 8 and 24 hours after to stop the activation of LAD 2. After centrifugation at 300×g for 5 minutes, total RNA was extracted from the precipitated cells using RNeasy Mini Kit (Qiagen) according to the protocol attached. Further in the experiments where expression levels upon stimulation by various TGR12 ligands were analyzed, LAD 2 was centrifuged at 300×g for 5 minutes and the cells precipitated were counted and suspended in the medium at 1.33×10^6 cells/mL. A 750 μL aliquot was inoculated on a 24-well plate, which was allowed to stand in a CO2 incubator at 37° C. for 30 minutes. […] The assay was performed for the respective reaction conditions in n=3. Two hours after, the plate was ice-chilled to stop the activation of LAD 2. After centrifugation at 300×g for 5 minutes, total RNA was extracted from the precipitated cells using RNeasy Mini Kit (Qiagen) according to the protocol attached. The total RNA obtained as described above was concentrated using ethachinmate according to the protocol attached and dissolved in RNase-free H2O, Next, using the solution corresponding to […] of total RNA, reverse transcription was performed by the following procedure using SuperScript II reverse transcriptase (Invitrogen) to synthesize single stranded cDNA. To the total RNA solution, 0.1 μg of random primer (Invitrogen) and 1 μL of 10 mM dNTP (Invitrogen) were added and then RNase-free H2O was added to make the whole volume 12 μL. The mixture was then incubated at 70° C. for 10 minutes and ice-cooled for a minute. After 4 μL of 5× First-Strand Buffer (attached to SuperScript II reverse transcriptase), 2 μL of 0.1M DTT (attached to SuperScript II reverse transcriptase), 1 μL of RNaseOUT (Invitrogen) and 1 μL of SuperScript II reverse transcriptase were added, the mixture was incubated at 42° C. for 50 minutes, then at 70° C. for 15 minutes and ice-cooled for 5 minutes. The thus obtained cDNA was purified using ethachinmate in accordance with the protocol attached and dissolved in Tris-EDTA buffer (Fluka).
In TaqMan PCR below, hTNFalpha-tF (SEQ ID NO: 33) and hTNFalpha-tR (SEQ ID NO: 34) were used as primers for human TNF-α quantification, hTNFalpha-tP (SEQ ID NO: 35) as a probe and hTNFalpha-standard (SEQ ID NO: 36) as a standard. For human CCL-5 quantification, hCCL5-tF (SEQ ID NO: 37) and hCCL5-tR (SEQ ID NO: 38) were used as primers, hCCL5-tP (SEQ ID NO: 39) as a probe and hCCL5 standard (SEQ ID NO: 40) as a standard. For human CCL-2 quantification, hCCL2-tF (SEQ ID NO: 41) and hCCL2-tR (SEQ ID NO: 42) were used as primers, hCCL2-tP (SEQ ID NO: 43) as a probe and hCCL2 standard (SEQ ID NO: 44) as a standard.
TaqMan PCR was performed in n=2 for each sample in a liquid volume of 15 μl using 12.5 ng of total RNA as a template. The reaction solution was composed of 900 nM primer, 250 nM probe and ½ volume of TaqMan Universal PCR Master Mix (Applied Biosystems). The reaction and analysis were performed by ABI PRISM 7900HT Sequence Detection System (Applied Biosystems). After keeping warm at 50° C. for 2 minutes and then at 95° C. for 10 minutes, the reaction cycle was set in one cycle to include 95° C. for 15 seconds and 60° C. for 1 minute and repeating the cycle 40 times.

Test [3] has as its system RBL-2H3. The test can be described thus: Intracellular calcium increasing activity in RBL2H3 (FLIPR). Details: unit not given here. The protocol: as §1
The intracellular calcium increasing activity was assayed as follows. RBL2H3 and RBL2H3-TGR12 were plated in a 96-well plate at a density of 40,000 cells/well and incubated overnight. The medium was then discarded and 100 μL/well of 4 μM Fluo3-AM (Dojin Kagaku)-containing assay buffer [Hank's Balanced Salt Solution (Invitrogen), 20 mM HEPES (Dojin Kagaku) and 2.5 mM Probenecid (Sigma)] was added. The mixture was allowed to stand for an hour at 37° C. Various TGR12 (Peptide Institute, Inc.) or calcium ionophore A23187 (Wako Pure Chemical) was diluted in 0.05% CHAPS-containing assay buffer. After the cells were washed with the assay buffer, fluorescence emitted with changes in intracellular calcium was measured using FLIPR (Molecular Device). A sample, 50 μL, was added at a rate of 50 μL/sec. 10 seconds after initiation of the assay. Fluorescence was measured every 1 second during the first 60 seconds and every 6 seconds during the next 120 seconds. The highest fluorescence intensity during 3 minutes was made the maximum activity under the stimulation conditions, which was taken as an average of 3 wells. The EC50 values were calculated using Graphpad PRISM 4 (Graphpad Software).

Setting [4] is: time course, 0.5 hours after the stimulation.
The mark [5] stands for this setting: time course, 2 hours after the stimulation.
[6] abbreviates: time course, 8 hours after the stimulation.
Setting [7] is: time course, 24 hours after the stimulation.
The mark [8] stands for this setting: various TGR12 ligands experiment, two hours after stimulation.

SMILES strings stand for the structures.

In the case of `CSCC[C@H](NC(=O)[C@H](CC(C)C)NC(=O)CNC(=O)[C@H](Cc1ccccc1)NC(=O)[C@H](Cc1ccccc1)NC(=O)[C@H](CCC(N)=O)NC(=O)[C@H](CCC(N)=O)NC(=O)[C@@H]1CCCN1C(=O)[C@H](CCCCN)NC(=O)[C@@H]1CCCN1C(=O)[C@@H](N)CCCNC(=N)N)C(N)=O` [substance P], the “degranulation (β-hexosaminidase in supernatant to total)” value in test [1] (RBL2H3, 10 nM) is 8.8%; in test [1] (RBL2H3, 30 nM), 8.9%; in test [1] (RBL2H3, 100 nM), 8.9%; in test [1] (RBL2H3, 300 nM), 8.5%; in test [1] (RBL2H3, 1 μM) it was 8.4%; in test [1] (RBL2H3, 3 μM), 7.9%. In addition, the “expression level of CCL-5 in LAD 2” value stood at 38107 copies in test [2] (setting [4]); 88872 copies in test [2] (setting [5]); 69921 copies in test [2] (setting [6]); 53605 copies in test [2] (setting [7]); 47117 copies in test [2] (setting [8]). For the same compound, the “expression level of TNF-α in LAD 2” value in test [2] (setting [4]) turned out to be 56065 copies; in test [2] (setting [5]) it was 1346293 copies; in test [2] (setting [6]), 54313 copies; in test [2] (setting [7]) it was 4332 copies; in test [2] (setting [8]) it was 173462 copies. In addition, the “expression level of CCL-2 in LAD 2” value in test [2] (setting [8]) was 2694837 copies. In addition, the “maximum activity in the calcium increasing effect” value stood at 44 in test [3] (RBL2H3, 1 nM); 51 in test [3] (RBL2H3, 10 nM); 50 in test [3] (RBL2H3, 100 nM); 95 in test [3] (RBL2H3, 1 μM); 41 in test [3] (RBL2H3, 10 μM).
